Legend:
[1] = system: metastatic melanoma-affected patients
Description: The melanoma-affected patients are treated as follows. […] The treatment course spans 15 to 20 intravenous infusions. When a positive dynamic is achieved, the treatment course is followed until the pronounced effect is produced.
Along with an estimated rate of objected responses of therapeutical measures, a comparison was made between such indexes as the quality of life, endurability of therapeutic treatment, and total survivability. The study included the patients of the age period between 18-75 with histologically confirmed diagnoses of skin related melanomas. None of the patients had yet gone through chemotherapy. […] The treatment process continued to the point where the disease started progressing or side-effects developed that required the therapeutic measures to be terminated.
Dacarbazine in a dose of 2500 mg/mL was prescribed in a form of infusion that lasted sixty minutes (60 min.), once a day during successive five days, every four weeks on the 1-5 and 29-33rd days respectively. Repeated courses were carried out only in the patients whose progressing disease was not recorded.

[2] = system: albumin; test: Albumin coagulation, optic density on photoelectric calorimeter; assay type: biochemical; details: for coagulation of the protein (in words): albumin solution
Description: In the coagulation studies, albumin was used for the protein.
In the table, the calculated concentrations of the substances being investigated are listed.
One (1) ml of the tannin solution was put into the test-tube. One (1) ml of the albumin solution was added. 5 ml of water were added. The mixture was shaken. An optic density of the solution was determined on KΦK-2(photoelectric calorimeter) when Δ=260 nm, in cuvette=1 cm in 5, 10, 15, 20, 25 min.
Each weight was repeated three times and the optical density measured.
In addition, the control experiment was conducted with 1 ml of the albumin solution, 0.001 g of potassium iodide, 5 ml of water.

[3] = reaction with PSA; cited from earlier work
[4] = treated patients, hematological side-effect

Structure (SMILES)	frequency of objective responses ([1]; melanoma patients, responses recorded in skin-based metastatic melanomas)	neuropenia recorded [1, 4]	trombocytopenia recorded [1, 4]	optic density ([2]; 0.001 g of potassium iodide added to the tannin/albumin solution)	coagulation of the protein (in words) [2]	optic density ([2]; another 0.001 g of potassium iodide added to the tannin/albumin solution)	turbidity in the solution ([2]; control: 1 ml albumin solution, 0.001 g potassium iodide, 5 ml water, one hour later)	optic density d5 ([2]; 1 ml tannin solution + 1 ml albumin solution + 5 ml water, 260 nm, 1 cm cuvette, 5 min)	optic density d10 ([2]; same mixture, 10 min)	optic density d20 ([2]; same mixture, 20 min)	optic density d25 ([2]; same mixture, 25 min)	period of precipitation for the reaction ([2]; tannin + albumin)	moles of N-acetylneuraminic acid sedimented by each mole of tannic acid [3]
CN(C)/N=N/c1[nH]cnc1C(N)=O [dacarbazine]	23%	14 % of observations	57 % of the patients										
[I-].[K+] [potassium iodide]				0.87	did not possess coagulating capacity	0.92	no turbidity						
O=C(OC[C@H]1O[C@@H](OC(=O)c2cc(O)c(O)c(OC(=O)c3cc(O)c(O)c(O)c3)c2)[C@H](OC(=O)c2cc(O)c(O)c(OC(=O)c3cc(O)c(O)c(O)c3)c2)[C@@H](OC(=O)c2cc(O)c(O)c(OC(=O)c3cc(O)c(O)c(O)c3)c2)[C@@H]1OC(=O)c1cc(O)c(O)c(OC(=O)c2cc(O)c(O)c(O)c2)c1)c1cc(O)c(O)c(OC(=O)c2cc(O)c(O)c(O)c2)c1 [tannin, tannic acid]					No coagulation			0.11	0.16	0.19	0.19	20 min	three
